Results: patent publication US20250257034A1, “INDOLE DERIVATIVES AS SEROTONERGIC AGENTS USEFUL FOR THE TREATMENT OF DISORDERS RELATED THERETO” (priority 2023, published 2025)
Like-named read-outs stand apart in the source and are kept apart here.

Experiments:
[1] = Pharmacokinetic studies in rat (i.v.); type: in vivo; conditions: male, Sprague-Dawley, rat, plasma, dose 1.37 mg/kg (I-71, I-128), 1.33 mg/kg ((S) I-67); for concentration at 0.25 h / concentration at 1 h / concentration at 4 h: intravenous, rat i.v.; for AUC(0-t) / half-life: iv, rat plasma, i.v.; for half-life: estimated from 2 points only
Experimental: Animals: Male Sprague-Dawley rats (˜225-350 g) from Charles River Labs were acclimatized for a minimum of 5 days prior to start of study procedures. Body weights were recorded on the day of dosing.
Any abnormalities were documented including presence/absence of wet dog shakes/back muscle contractions (WDS/BMC).
Dosing: Formulations were administered intravenously (i.v.) via the tail vein using a 25 G needle connected to a 1 cc syringe.
The Compounds of Formula (I) were freshly prepared at the appropriate concentrations in 5% Tween-80 in saline.
Blood collection time (h): 0.25, 1 and 4.
Volume/time-point: ˜0.25 mL […] (saphenous vein).
Instrumentation: AB Sciex QTRAP 4000 or 6500 MS/MS system equipped with an LC system with a binary pump, a solvent degasser, a thermostatted column compartment and a multiplate autosampler.
Analysis software: Phoenix® WinNonlin® 8.3 (Pharsight, Certara, Mountainview, CA).
Analysis methods: non-compartmental analysis, linear up/log down trapezoidal rule.
PK parameters: t1/2 and AUC0-tlast were be estimated.
Volume/time-point: ˜0.25 mL (saphenous vein).
PK parameters: t1/2 and AUC0-tlast were estimated.

[2] = Human liver microsomes stability; type: in vitro ADME; conditions: human liver microsomes
Summary of the method: (§1)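 In this assay, 2 μM compound is incubated with NADPH-supplemented liver microsomes (human pooled; male rat; male mouse) at 37° C for up to 60 min. Depletion is followed by LC-MS/MS, and CLint is expressed per mg microsomal protein.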

[3] = Rat liver microsomes stability; type: in vitro ADME; conditions: rat liver microsomes
Summary of the method: as §1

[4] = Mouse liver microsomes stability; type: in vitro ADME; conditions: mouse liver microsomes
[5] = first individual rat (R01/R04), read-out: Plasma concentration
[6] = mean of 3 rats, read-out: Plasma concentration, Mean ± SD
[7] = second individual rat (R02/R05), read-out: Plasma concentration
[8] = third individual rat (R03/R06), read-out: Plasma concentration
[9] = male, pooled liver microsomes, 2 μM compound, 0.5 mg/mL
[10] = male, pooled liver microsomes, read-out: Scaled-up CLint

Work on `COc1ccc2[nH]cc(CCN3CC[C@H](OC(F)F)C3)c2c1` [(S) I-67, (S)-3-(2-(3-(Difluoromethoxy)pyrrolidin-1-yl)ethyl)-5-methoxy-1H-indole] yielded a concentration at 0.25 h [1, 5] of 413 ng/mL, a concentration at 0.25 h [1, 6] of 436 ± 32.4 ng/mL and a concentration at 0.25 h [1, 7] of 473 ng/mL. The concentration at 0.25 h [1, 8] was 422 ng/mL, the concentration at 1 h [1, 5] was 172 ng/mL and the concentration at 1 h [1, 6] was 162 ± 9.07 ng/mL. The concentration at 1 h [1, 7] was 155 ng/mL, the concentration at 1 h [1, 8] was 158 ng/mL and the concentration at 4 h [1, 5] was 5.35 ng/mL. It also gave a concentration at 4 h [1, 6] of 6.96 ± 1.54 ng/mL, a concentration at 4 h [1, 7] of 8.41 ng/mL and a concentration at 4 h [1, 8] of 7.12 ng/mL. For the same compound, the AUC(0-t) ([1]; first individual rat (R01/R04), read-out: AUC0-tlast) was 470 ng·h/mL, the half-life ([1]; first individual rat (R01/R04), read-out: Apparent t1/2 (converted)) was 35.9 min and the AUC(0-t) ([1]; mean of 3 rats, read-out: AUC0-tlast, Mean ± SD) was 484 ± 21.1 ng·h/mL. For the same compound, the half-life ([1]; mean of 3 rats, read-out: Apparent t1/2, Mean ± SD (converted)) was 38.2 ± 2.02 min, the AUC(0-t) ([1]; second individual rat (R02/R05), read-out: AUC0-tlast) was 508 ng·h/mL and the half-life ([1]; second individual rat (R02/R05), read-out: Apparent t1/2 (converted)) was 39.8 min. The AUC(0-t) ([1]; third individual rat (R03/R06), read-out: AUC0-tlast) was 472 ng·h/mL, the half-life ([1]; third individual rat (R03/R06), read-out: Apparent t1/2 (converted)) was 38.8 min and the “Predicted hepatic CL” value [2] was 13.30 mL/min/kg. The half-life at 2 μM ([2]; 2 μM compound, 0.5 mg/mL) was 46.8 min, the microsomal CLint at 2 μM ([2]; 2 μM compound, 0.5 mg/mL, read-out: CLint (μL/min/mg protein)) was 29.6 µL/min/mg and the “Remaining Percentage (%)” value ([2]; With Cofactors, 0 min) was 100.00%. For the same compound, the “Remaining Percentage (%)” value ([2]; With Cofactors, 30 min) was 66.20%, the “Remaining Percentage (%)” value ([2]; With Cofactors, 60 min) was 41.10% and the “Remaining Percentage (%)” value ([2]; Without Cofactors, 0 min) was 100.00%. The “Remaining Percentage (%)” value ([2]; Without Cofactors, 30 min) was 98.68%, the “Remaining Percentage (%)” value ([2]; Without Cofactors, 60 min) was 100.00% and the CLint scaled at 2 μM ([2]; read-out: Scaled-up CLint) was 37.2 mL/min/kg. For the same compound, the half-life at 2 μM [3, 9] was < 4.51 min, the CLint scaled at 2 μM [3, 10] was > 550 mL/min/kg and the microsomal CLint at 2 μM ([3]; male, rat, pooled liver microsomes, 2 μM compound, 0.5 mg/mL, read-out: CLint (μL/min/mg protein)) was > 307 µL/min/mg. The “Predicted hepatic CL” value [3] was >50.17 mL/min/kg, the “Remaining Percentage (%)” value ([3]; With Cofactors, 0 min) was 100.00% and the “Remaining Percentage (%)” value ([3]; With Cofactors, 30 min) was 0.00%. For the same compound, the “Remaining Percentage (%)” value ([3]; With Cofactors, 60 min) was 0.00%, the “Remaining Percentage (%)” value ([3]; Without Cofactors, 0 min) was 100.00% and the “Remaining Percentage (%)” value ([3]; Without Cofactors, 30 min) was 99.06%. For the same compound, the “Remaining Percentage (%)” value ([3]; Without Cofactors, 60 min) was 96.86%, the microsomal CLint at 2 μM ([4]; male, mouse, pooled liver microsomes, 2 μM compound, 0.5 mg/mL, read-out: CLint (μL/min/mg protein)) was 69.3 µL/min/mg and the half-life at 2 μM [4, 9] was 20 min. For the same compound, the CLint scaled at 2 μM [4, 10] was 303 mL/min/kg, the “Predicted hepatic CL” value [4] was 69.41 mL/min/kg and the “Remaining Percentage (%)” value ([4]; With Cofactors, 0 min) was 100.00%. The “Remaining Percentage (%)” value ([4]; With Cofactors, 30 min) was 34.21%, the “Remaining Percentage (%)” value ([4]; With Cofactors, 60 min) was 12.49% and the “Remaining Percentage (%)” value ([4]; Without Cofactors, 0 min) was 100.00%. For the same compound, the “Remaining Percentage (%)” value ([4]; Without Cofactors, 30 min) was 103.46% and the “Remaining Percentage (%)” value ([4]; Without Cofactors, 60 min) was 100.35%.
